Laboratory results taken from patent US20250172566A1, “SACCHARIDE SENSING SYSTEMS” (CARBOMETRICS LIMITED, priority 2022, published 2025).

Assay: Fluorescent hydrogel phase glucose responsive assay (10 mM PBS, pH 7.4, 310 K)
Conditions: 20 mM D-glucose, GBM2 10 uM, FIM 1 uM
Protocol: The fluorescence spectrum of the corresponding hydrogel, already swollen in 200 μL of 10 mM PBS, in a well plate was recorded by exciting at the designated excitation frequency and monitoring at the typical emission maximum (Emmax). The PBS top solution was removed either by micropipette or by decanting onto an absorbent material. A 200 μL solution of D-glucose (in 10 mM PBS) at the required concentration was added to each hydrogel in the well plate and the system allowed to reach equilibrium. The emission spectra for each well were collected after this and compared to the original baseline emission, monitoring at the typical emission maximum (Emmax), and the percentage increase or decrease recorded. The change in emission was recorded for each hydrogel in the well plate (up to 96 individual hydrogel sensors) or an average of all wells was used. The hydrogel bound assays were then investigated for reproducibility by cycling with solutions of PBS or D-glucose. This was achieved by removal of the previous top solution (e.g. D-glucose) by micropipette or decanting onto an absorbent material and replacing with another solution (e.g. 10 mM PBS). […] Emission spectra acquired using a Clariostar plus plate reader.
(§1) Hydroxyethylmethacrylate (2.85 g), TEGDMA (0.15 g), VAZO-44 (0.12 mg), ethylene glycol (1.06 g) and water (1.33 g) were added to a glass vial and vortexed/sonicated until a homogeneous solution. Concentrated aliquots (<50 μL) of the appropriate GBM and FIM from pre-made stock solutions were added to give the required final concentrations of GBM and FIM (i.e. 50 μL of GBM stock solution at 1 mM gives a final GBM concentration of 10 μM in the pre-gel solution). A 50 μL aliquot of this GBM and FIM containing pre-gel solution was pipetted into each well of a transparent flat-bottomed polystyrene 96 well plate. 100 μL of n-butanol was layered on top of the pre-gel solution in each well plate and each well plate covered with a loose transparent well plate lid. The well plate was then placed in a nitrogen flushed desiccator, which was then placed into a pre-heated oven at 45° C. for 4 hours. The well plates were then removed from the oven, allowed to cool to RT and the top solution removed by decanting onto an absorbent material. The hydrogels were then washed and swelled by submerging in one litre of pure water or 10 mM PBS for 24 hours. Each well within the well plate containing hydrogel bound assay was then washed with D-glucose (50 mM) and then 10 mM PBS multiple times until the observed fluorescence emission stabilised to give a baseline emission value in 10 mM PBS. These hydrogels were then used for determining assay performance and reversibility studies.
as §1, with “(1.95” for “(2.85”, “PEGDA (0.57” for “TEGDMA (0.15”, “(0.04” for “(0.12”, “200 mM methyl-p-D-glucopyranoside (aqueous, 1.39” for “water (1.33”, “FIM.” for “FIM (i.e. 50 μL of GBM stock solution at 1 mM gives a final GBM concentration of 10 μM in the pre-gel solution).”, “hours.” for “hours. Each well within the well plate containing hydrogel bound assay was then washed with D-glucose (50 mM) and then 10 mM PBS multiple times until the observed fluorescence emission stabilised to give a baseline emission value in 10 mM PBS. These hydrogels were then used for determining assay performance and reversibility studies.”

[1] = Ex 470/Emmax 530 nm, hydrogel A (HEMA/TEGDMA)
[2] = Ex 470/Emmax 530 nm, hydrogel C (polyacrylamide/bis-acrylamide)

| SMILES | Change in Emmax for FIM at a particular D-glucose concentration (Ex 515/Emmax 550 nm, hydrogel A (HEMA/TEGDMA)) [%] | Change in Emmax for FIM at a particular D-glucose concentration (Ex 515/Emmax 550 nm, hydrogel C (polyacrylamide/bis-acrylamide)) [%] | Change in Emmax for FIM at a particular D-glucose concentration [1] [%] | Change in Emmax for FIM at a particular D-glucose concentration [2] [%] |
| --- | --- | --- | --- | --- |
| C=CC(=O)NCCOCCOCCOCCOCCOCCOCCC(=O)NCCCC[C@@H](C(=O)Nc1ccc(CCO[C@@H]2O[C@H](CO)[C@@H](O)[C@H](O)[C@H]2O)cc1)n1cc(CNC(=O)c2ccc(C(=O)O)c(-c3c4cc(C)c(=NCC)cc-4oc4cc(NCC)c(C)cc34)c2)nn1 [FIM16] | 45 | 50 |  |  |
| C=CC(=O)NC(Cc1cn(CCOCCOc2ccc(CCO[C@@H]3O[C@H](CO)[C@@H](O)[C@H](O)[C@H]3O)cc2)nn1)C(=O)Nc1ccc2c(c1)C(=O)OC21c2ccc(O)cc2Oc2cc(O)ccc21 (stereo partly drawn) [FIM21] |  |  | 0 |  |
| C=CC(=O)NCCCC[C@@H](C(=O)Nc1ccc2c(c1)C(=O)OC21c2ccc(O)cc2Oc2cc(O)ccc21)n1cc(-c2ccc(CCO[C@@H]3O[C@H](CO)[C@@H](O)[C@H](O)[C@H]3O)cc2)nn1 [FIM22] |  |  | 10 | 15 |
| C=CC(=O)NCCOCCOCCOCCOCCOCCOCCC(=O)NCCCC[C@@H](C(=O)Nc1ccc(CCO[C@@H]2O[C@H](CO)[C@@H](O)[C@H](O)[C@H]2O)cc1)n1cc(CNC(=O)c2ccc3c(c2)C(=O)OC32c3ccc(O)cc3Oc3cc(O)ccc32)nn1 [FIM23] |  |  | 10 | 15 |
| C=CC(=O)NCCOCCOCCOCCOCCOCCOCCC(=O)NCCCC[C@@H](C(=O)Nc1ccc2c(c1)C(=O)OC21c2ccc(O)cc2Oc2cc(O)ccc21)n1cc(-c2ccc(CCO[C@@H]3O[C@H](CO)[C@@H](O)[C@H](O)[C@H]3O)cc2)nn1 [FIM24] |  |  | 8 |  |
| C=CC(=O)NCCOCCOCCOCCOCCOCCOCCC(=O)NCCCC[C@@H](C(=O)Nc1ccc2c(c1)C(=O)OC21c2ccc(O)cc2Oc2cc(O)ccc21)n1cc(-c2ccc(CCO[C@@H]3O[C@H](C(=O)O)[C@@H](O)[C@H](O)[C@H]3O)cc2)nn1 [FIM25] |  |  | 12 |  |
